Tests used:
MAGL [1] = target: T1, MAGL (Homo sapiens, UniProt Q99685); experiment: In vitro competitive activity-based protein profiling, MAGL, human; details: for inhibition at 1 µM: read-out: MAGL % inh. 1 μM (human)
T1 sequence (Q99685 1-303): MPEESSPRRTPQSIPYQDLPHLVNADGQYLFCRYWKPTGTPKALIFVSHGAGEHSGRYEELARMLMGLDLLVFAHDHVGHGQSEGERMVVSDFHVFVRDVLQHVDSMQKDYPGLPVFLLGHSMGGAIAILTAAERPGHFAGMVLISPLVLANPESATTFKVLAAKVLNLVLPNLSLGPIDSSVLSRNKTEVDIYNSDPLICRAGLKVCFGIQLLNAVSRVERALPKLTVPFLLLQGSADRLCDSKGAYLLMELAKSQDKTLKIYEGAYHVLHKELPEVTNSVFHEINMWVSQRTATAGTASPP

MAGL [2] = target: T2, MAGL (Mus musculus, UniProt O35678); experiment: In vitro competitive activity-based protein profiling, MAGL, mouse; details: read-out: MAGL % inh. 1 μM (mouse)
T2 sequence (O35678 1-303): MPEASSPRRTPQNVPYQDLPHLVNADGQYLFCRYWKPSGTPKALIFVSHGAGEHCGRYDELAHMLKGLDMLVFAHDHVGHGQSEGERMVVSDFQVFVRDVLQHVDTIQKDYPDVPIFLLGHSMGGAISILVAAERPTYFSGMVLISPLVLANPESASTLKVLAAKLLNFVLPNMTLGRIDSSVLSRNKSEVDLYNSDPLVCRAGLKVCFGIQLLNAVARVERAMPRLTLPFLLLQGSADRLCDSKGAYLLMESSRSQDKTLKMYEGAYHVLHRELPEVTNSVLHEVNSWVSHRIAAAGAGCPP

| inhibition at 1 µM (MAGL [1]) [%] | inhibition at 1 µM (MAGL [2]) [%] | IC50 (MAGL [1]) [µM] | Structure (SMILES) |
| --- | --- | --- | --- |
| > 75 | > 75 |  | O=C(O)c1ccn(C(=O)N2CCN(Cc3cccc(Oc4ccc(F)cn4)c3)CC2)n1 [Example 266, 1-(4-(3-((5-fluoropyridin-2-yl)oxy)benzyl)piper-azine-1-carbonyl)-1H-pyrazole-3-carboxylic acid] |
| > 75 | > 75 |  | C[C@H]1CN(Cc2cc(F)cc(Oc3ccccc3Cl)c2)CCN1C(=O)n1ccc(C(=O)O)n1 [Example 349, (S)-1-(4-(3-(2-chlorophenoxy)-5-fluorobenzyl)-2-methylpiperazine-1-carbonyl)-1H-pyrazole-3-carboxylic acid] |
| > 75 | > 75 |  | NC(=O)c1ccn(C(=O)N2CCC3(CCN(Cc4cccc(C(F)(F)F)c4)C3)CC2)n1 [Example 284, 1-(2-(3-(trifluoromethyl)benzyl)-2,8-diazaspiro[4.5]decane-8-carbonyl)-1H-pyrazole-3-carboxamide] |
| > 75 | > 75 |  | O=C(O)c1nn(C(=O)N2C[C@H]3C[C@H](Oc4cccc(-c5ccccc5)c4)C[C@H]3C2)cc1Cl [Example 304, 1-(trans-5-([1,1′-biphenyl]-3-yloxy)octahydrocyc-lopenta[c]pyrrole-2-carbonyl)-4-chloro-1H-pyrazole-3-carboxylic acid] |
| 25 to 50 | 0 to 25 |  | O=C(O)c1ccn(C(=O)N2CCC3(CCN(Cc4cccc(C(F)(F)F)c4)CC3)C2)n1 [Example 287, 1-(8-(3-(trifluoromethyl)benzyl)-2,8-diazaspiro[4.5]decane-2-carbonyl)-1H-pyrazole-3-carboxylic acid] |
| > 75 | > 75 |  | C[C@@H]1CN(Cc2cc(F)cc(Oc3ccc(Cl)cc3)c2)CCN1C(=O)n1ccc(C(=O)O)n1 [Example 348, (R)-1-(4-(3-(4-chlorophenoxy)-5-fluorobenzyl)-2-methylpiperazine-1-carbonyl)-1H-pyrazole-3-carboxylic acid] |
| > 75 | > 75 |  | O=C(O)c1ccn(C(=O)N2C[C@H]3C[C@H](Oc4ccc(Cl)c(-c5nccs5)c4)C[C@H]3C2)n1 [Example 318, 1-(trans-5-(4-chloro-3-(thiazol-2-yl)phenoxy)octa-hydrocyclopenta[c]pyrrole-2-carbonyl)-1H-pyrazole-3-carboxylic acid] |

Further lines, the molecule ahead of its results:

| Structure (SMILES) | inhibition at 1 µM (MAGL [1]) [%] | inhibition at 1 µM (MAGL [2]) [%] | IC50 (MAGL [1]) [µM] |
| --- | --- | --- | --- |
| O=C(O)c1ccn(C(=O)N2CCN(Cc3cccc(Oc4cccnn4)c3)CC2)n1 [Example 229, 1-(4-(3-(pyridazin-3-yloxy)benzyl)piper-azine-1-carbonyl)-1H-pyrazole-3-carboxylic acid] | 25 to 50 | 0 to 25 |  |
| O=C(O)c1ccn(C(=O)N2CCC(OCc3cc(Cl)cc(Oc4ccc(Cl)cc4)c3)CC2)n1 [Example 27, 1-(4-((3-Chloro-5-(4-chlorophenoxy)benzyl)oxy)piperidine-1-carbonyl)-1H-pyrazole-3-carboxylic Acid] | > 75 | > 75 |  |
| O=C(O)c1ccn(C(=O)N2C[C@H]3C[C@@H](OCc4cccc(C(F)(F)F)c4)C[C@H]3C2)n1 [Example 255, 1-(trans-5-((3-(trifluoromethyl)benzyl)oxy)octa-hydrocyclopenta[c]pyrrole-2-carbonyl)-1H-pyrazole-3-carboxylic acid] | > 75 | > 75 | 0.1 to 1 |
| O=C(O)c1ccn(C(=O)N2C[C@H]3C[C@H](Oc4cccc(C5CC5)c4)C[C@H]3C2)n1 [Example 219, 1-(trans-5-(3-cyclopropylphenoxy)octahydrocyclopenta [c]pyrrole-2-carbonyl)-1H-pyrazole-3-carboxylic acid] | > 75 | > 75 |  |
| O=C(O)c1ccn(C(=O)N2CCC3(CCN(Cc4cccc(Oc5cncnc5)c4)C3)CC2)n1 [Example 31, 1-(2-(3-(Pyrimidin-5-yloxy)benzyl)-2,8-diazaspiro[4.5]decane-8-carbonyl)-1H-pyrazole-3-carboxylic Acid] | 0 to 25 | 50 to 75 |  |
